Measured values taken from US11459323B2, “Monocyclic β-lactam compound for treating bacterial infection” (MEDSHINE DISCOVERY INC., priority 2018, dated 2022).
Converted amounts (≈) assume the structure as drawn. Like-named read-outs stand apart in the source and are kept apart here.

Columns and labels:
[1] = tested on: Pseudomonas aeruginosa C761; experiment: MIC on clinically isolated bacteria; type: cell-based
In short: (§1)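 Clinical strains were selected (twenty-five A. baumannii, twenty-seven P. aeruginosa), then compounds were serially diluted in liquid micro-dilution format following CLSI requirements to find the minimum inhibitory concentration.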

[2] = tested on: Acinetobacter baumannii C427; experiment: MIC on clinically isolated bacteria; type: cell-based
In short: as §1

[3] = tested on: Pseudomonas aeruginosa M1; experiment: MIC on clinically isolated bacteria; type: cell-based
In short: as §1

[4] = tested on: Acinetobacter baumannii C408; experiment: MIC on clinically isolated bacteria; type: cell-based
In short: as §1

[5] = tested on: Pseudomonas aeruginosa C762; experiment: MIC on clinically isolated bacteria; type: cell-based
In short: as §1

[6] = tested on: Pseudomonas aeruginosa M4; experiment: MIC on clinically isolated bacteria; type: cell-based
In short: as §1

[7] = tested on: Acinetobacter baumannii C315; experiment: MIC on clinically isolated bacteria; type: cell-based
In short: as §1

[8] = tested on: Pseudomonas aeruginosa W23; experiment: MIC on clinically isolated bacteria; type: cell-based
In short: as §1

Aeruginosa ATCC27853 = experiment: MIC on clinically isolated bacteria; type: cell-based; conditions: Pseudomonas aeruginosa
In short: as §1

[9] = tested on: Acinetobacter baumannii C395; experiment: MIC on clinically isolated bacteria; type: cell-based
In short: as §1

[10] = tested on: Acinetobacter baumannii C283; experiment: MIC on clinically isolated bacteria; type: cell-based
In short: as §1

[11] = tested on: Pseudomonas aeruginosa PA14; experiment: Lungs of immunosuppressed mice infected with Pseudomonas aeruginosa (2), lung bacterial load; type: in vivo; conditions: 24 hours after infection, day, ip at 2 h, 4 h, 6 h, 8 h
Procedure: Pseudomonas aeruginosa PA14. 60 mice were intraperitoneally injected with 150 mg/kg cyclophosphamide on day 1 and day 4 to give immunosuppressed mice. […] [table] The mice were injected with 50 μL of bacterial solution (2×10^3 CFU) through the airway. 2 hours after the infection, 4 mice in the model group was sacrificed by removing cervical vertebra. Two hours after infection, the drugs were administered by groups, and the mice were administered intraperitoneally once at 2 hours, 4 hours, 6 hours, and 8 hours, a total of 4 times. Mice of each group were sacrificed by removing cervical vertebra 24 hours after infection, lung and kidney tissues were taken aseptically and put into a sterilized tissue homogenate tube, weighed, and an appropriate amount of normal saline (NS) was added, the mixture was homogenized by a homogenizer for 1 min, the lung tissues of the model group were diluted 10^4, 10^5, 10^6 times, the lung tissues of each administration group were diluted 10, 100 times, the kidney tissues of the model group were diluted 10^2, 10^3, 10^4 times, and the lung tissues of each administration group were diluted 10 times, the obtained mixtures were coated on TSA plates using spiral coater, then incubated at 37° C. overnight, and the CFU was counted with a colony counter. Graphpad Prism mapping software was used to make scatter plots of lung tissue CFU. SPSS19.0 software was used to count CFU and average body weight, and analysis of variance was used to analyze differences between groups.

[12] = Acinetobacter baumannii C427, read-out: Minimum Inhibitory Concentration (MIC)
[13] = Acinetobacter baumannii C408, read-out: Minimum Inhibitory Concentration (MIC)
[14] = Acinetobacter baumannii C315, read-out: Minimum Inhibitory Concentration (MIC)
[15] = Aeruginosa ATCC27853, read-out: MIC
[16] = Acinetobacter baumannii C395, read-out: Minimum Inhibitory Concentration (MIC)
[17] = Acinetobacter baumannii C283, read-out: Minimum Inhibitory Concentration (MIC)

Row | Structure (SMILES) | MIC ([1]; read-out: MIC) [µg/mL] | MIC [2, 12] [µg/mL] | MIC ([3]; read-out: MIC) [µg/mL] | MIC [4, 13] [µg/mL] | MIC ([5]; read-out: MIC) [µg/mL] | MIC ([6]; read-out: MIC) [µg/mL] | MIC [7, 14] [µg/mL] | MIC ([8]; read-out: MIC) [µg/mL] | MIC (Aeruginosa ATCC27853; [15]) [µg/mL] | MIC [9, 16] [µg/mL] | MIC [10, 17] [µg/mL] | LOG10-of bacterial load ([11]; total dosage 20 mg/kg) | LOG10-of bacterial load ([11]; total dosage 60 mg/kg) | also measured
1 | CN(C)c1cc(NC(=O)CNC(C)(C)C)c(O)c2c1C[C@H]1C[C@H]3[C@H](N(C)C)C(O)=C(C(N)=O)C(=O)[C@@]3(O)C(O)=C1C2=O [Tigecycline, reference compound] | – | – | – | – | – | – | – | – | – | – | – | – | – | MIC [1]: 16 µg/mL (≈ 27.3 µM); MIC ([2]; Acinetobacter baumannii, C427, read-out: Minimum Inhibitory Concentration (MIC)): 1 µg/mL (≈ 1.71 µM); MIC [3]: 16 µg/mL (≈ 27.3 µM); MIC ([4]; Acinetobacter baumannii, C408, read-out: Minimum Inhibitory Concentration (MIC)): 1 µg/mL (≈ 1.71 µM); MIC [5]: > 16 µg/mL; MIC [6]: 4 µg/mL (≈ 6.83 µM); MIC ([7]; Acinetobacter baumannii, C315, read-out: Minimum Inhibitory Concentration (MIC)): 1 µg/mL (≈ 1.71 µM); MIC [8]: 16 µg/mL (≈ 27.3 µM); MIC (Aeruginosa ATCC27853; ATCC27853): 8 µg/mL (≈ 13.7 µM); MIC ([9]; Acinetobacter baumannii, C395, read-out: Minimum Inhibitory Concentration (MIC)): 1 µg/mL (≈ 1.71 µM); MIC ([10]; Acinetobacter baumannii, C283, read-out: Minimum Inhibitory Concentration (MIC)): 1 µg/mL (≈ 1.71 µM)
2 | CC1(C)[C@H](NC(=O)/C(=N\O[C@@H](COc2ccc3c(c2)CN(C(=N)NCCCCN)C3)C(=O)O)c2csc(N)n2)C(=O)N1OS(=O)(=O)O [Compound 36] | 0.25 (≈ 0.358 µM) | 2 (≈ 2.87 µM) | 0.5 (≈ 0.717 µM) | 2 (≈ 2.87 µM) | 8 (≈ 11.5 µM) | 1 (≈ 1.43 µM) | 2 (≈ 2.87 µM) | 0.25 (≈ 0.358 µM) | 0.25 (≈ 0.358 µM) | 2 (≈ 2.87 µM) | 2 (≈ 2.87 µM) | – | – | –

Now from value to compound, other results behind:

Row | MIC ([1]; read-out: MIC) [µg/mL] | MIC [2, 12] [µg/mL] | MIC ([3]; read-out: MIC) [µg/mL] | MIC [4, 13] [µg/mL] | MIC ([5]; read-out: MIC) [µg/mL] | MIC ([6]; read-out: MIC) [µg/mL] | MIC [7, 14] [µg/mL] | MIC ([8]; read-out: MIC) [µg/mL] | MIC (Aeruginosa ATCC27853; [15]) [µg/mL] | MIC [9, 16] [µg/mL] | MIC [10, 17] [µg/mL] | Structure (SMILES) | LOG10-of bacterial load ([11]; total dosage 20 mg/kg) | LOG10-of bacterial load ([11]; total dosage 60 mg/kg) | also measured
3 | 0.25 (≈ 0.315 µM) | 4 (≈ 5.04 µM) | 1 (≈ 1.26 µM) | 4 (≈ 5.04 µM) | 8 (≈ 10.1 µM) | 1 (≈ 1.26 µM) | 4 (≈ 5.04 µM) | 0.25 (≈ 0.315 µM) | 0.5 (≈ 0.631 µM) | 4 (≈ 5.04 µM) | 4 (≈ 5.04 µM) | CC1(C)[C@H](NC(=O)/C(=N\O[C@@H](COc2ccc3c(c2)CN(/C(=N\[C@@H]2CCCNC2)N[C@@H]2CCCNC2)C3)C(=O)O)c2csc(N)n2)C(=O)N1OS(=O)(=O)O [Compound 46] | 3.13 ± 2.45 | 0.34 ± 0.85 | –
4 | 1 (≈ 1.49 µM) | 2 (≈ 2.99 µM) | 0.5 (≈ 0.747 µM) | 1 (≈ 1.49 µM) | 4 (≈ 5.97 µM) | 0.5 (≈ 0.747 µM) | 1 (≈ 1.49 µM) | 0.5 (≈ 0.747 µM) | 0.5 (≈ 0.747 µM) | 1 (≈ 1.49 µM) | 1 (≈ 1.49 µM) | CC1(C)[C@H](NC(=O)/C(=N\O[C@@H](COc2ccc3c(c2)CN(C(=N)NCCN)C3)C(=O)O)c2csc(N)n2)C(=O)N1OS(=O)(=O)O [Compound 44] | 6.80 ± 0.94 | 2.40 ± 1.99 | –
5 | 8 (≈ 11.2 µM) | 16 (≈ 22.4 µM) | 4 (≈ 5.61 µM) | 8 (≈ 11.2 µM) | > 16 | 0.25 (≈ 0.351 µM) | 16 (≈ 22.4 µM) | 4 (≈ 5.61 µM) | 2 (≈ 2.81 µM) | 8 (≈ 11.2 µM) | 16 (≈ 22.4 µM) | CC1(C)[C@H](NC(=O)/C(=N\O[C@@H](COc2ccc3c(c2)CN(C(=N)N(CCN)CCN)C3)C(=O)O)c2csc(N)n2)C(=O)N1OS(=O)(=O)O [Compound 45] | – | – | –
